From ChEMBL document CHEMBL1201862, “PubChem BioAssay data set” (2004)
The source made the active and inactive calls.

Key:
[1] = viability of uninfected HEp-2 cells – cell-based, HTS, cytotoxicity control for RSV inhibitor project, dose response (AID 2410); type: functional; settings: human respiratory syncytial virus
[2] = Luminescence Cell-Based Dose Confirmation HTS to Identify Activators of 5'UTR Stem-Loop Driven Alpha-Synuclein mRNA Translation in H4 Neuroglioblastoma Cells. [Related pubchem assays: 1829 (Project Summary), 1814 (Primary HTS)]; type: functional
[3] = decrease of insulin promoter-GFP reporter – imaging, high-content screening, mouse beta cells (AID 1628); type: functional; settings: MIN6
[4] = Luminescence Cell-Based Dose Response HTS to Identify Activators of Luciferase Translation or Activity in H4 […] Cells. [Related pubchem assays: 1829 (Project Summary), 1814 (Primary HTS)]; type: functional
[5] = MIN6 cell viability loss – mouse insulinoma, cytotoxicity control, dose response (AID 2122); type: functional;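 further: confirmatory high-throughput counterscreen run to flag cytotoxic compounds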
H4 = assay: Luminescence Cell-Based Dose Response HTS to Identify Activators of 5'UTR Stem-Loop Driven Prion Protein mRNA Translation in H4 Neuroglioblastoma Cells. [Related pubchem assays: 1829 (Project Summary), 1814 (Primary HTS)]; type: functional; settings: Homo sapiens
[6] = microbe, parasite or virus in culture; type: functional; settings: Mycobacterium tuberculosis
INS1 = assay: INS-1E survival protection against cytokine death – cell-based, luminescence, retest, dose response (AID 449756); type: functional; settings: Rattus norvegicus;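 further: cell death triggered by IL-1 beta plus TNF-alpha plus IFN-gamma mixture; protective hits raise ATP signal compared with cytokine alone wells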
[7] = biological target: Disintegrin and metalloproteinase domain-containing protein 17 (Homo sapiens, UniProt P78536); assay: exosite inhibitors of ADAM17, dose response, biochemical (AID 743260)
Disintegrin and metalloproteinase domain-containing protein 17, sequence (P78536 whole entry, the tested form may be a part): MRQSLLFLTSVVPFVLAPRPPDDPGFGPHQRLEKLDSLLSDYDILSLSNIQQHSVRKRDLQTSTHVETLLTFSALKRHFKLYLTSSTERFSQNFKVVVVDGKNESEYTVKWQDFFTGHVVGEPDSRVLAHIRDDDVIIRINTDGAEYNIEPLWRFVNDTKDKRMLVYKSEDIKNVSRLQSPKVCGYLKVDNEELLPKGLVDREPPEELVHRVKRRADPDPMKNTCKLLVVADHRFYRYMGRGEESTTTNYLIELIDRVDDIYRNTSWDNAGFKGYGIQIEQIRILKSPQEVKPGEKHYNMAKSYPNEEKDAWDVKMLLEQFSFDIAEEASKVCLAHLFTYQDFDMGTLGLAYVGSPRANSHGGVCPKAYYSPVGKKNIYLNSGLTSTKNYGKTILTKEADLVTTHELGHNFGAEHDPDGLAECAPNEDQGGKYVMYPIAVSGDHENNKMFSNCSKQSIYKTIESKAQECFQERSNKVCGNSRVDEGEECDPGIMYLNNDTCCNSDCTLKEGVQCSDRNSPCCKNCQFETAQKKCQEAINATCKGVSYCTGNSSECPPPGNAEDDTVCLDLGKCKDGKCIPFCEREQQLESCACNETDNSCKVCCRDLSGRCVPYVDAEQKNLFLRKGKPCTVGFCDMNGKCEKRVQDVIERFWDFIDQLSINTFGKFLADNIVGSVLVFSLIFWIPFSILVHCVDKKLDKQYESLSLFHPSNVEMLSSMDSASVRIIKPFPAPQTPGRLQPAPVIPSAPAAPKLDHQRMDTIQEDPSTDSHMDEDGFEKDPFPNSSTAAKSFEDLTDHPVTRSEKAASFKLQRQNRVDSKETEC

[8] = inhibition of ADAM10 peptide cleavage – biochemical, FRET peptide substrate, recombinant human ADAM10, selectivity assay for ADAM17 exosite inhibitor project, dose response (AID 743259);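 further: ADAM10 enzyme cleaving a FRET peptide substrate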
[9] = biological target: Induced myeloid leukemia cell differentiation protein Mcl-1 (Homo sapiens, UniProt Q07820); type: functional
Induced myeloid leukemia cell differentiation protein Mcl-1, sequence (Q07820 whole entry): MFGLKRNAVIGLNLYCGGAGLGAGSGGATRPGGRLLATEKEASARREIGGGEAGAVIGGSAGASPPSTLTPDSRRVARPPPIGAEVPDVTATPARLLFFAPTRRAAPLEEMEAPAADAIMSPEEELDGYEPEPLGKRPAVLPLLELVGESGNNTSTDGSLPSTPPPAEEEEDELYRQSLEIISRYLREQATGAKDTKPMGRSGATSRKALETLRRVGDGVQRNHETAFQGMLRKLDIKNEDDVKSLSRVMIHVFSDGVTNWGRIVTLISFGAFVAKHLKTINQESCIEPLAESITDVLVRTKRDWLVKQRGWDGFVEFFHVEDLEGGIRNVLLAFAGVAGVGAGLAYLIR

[10] = biological target: Intestinal-type alkaline phosphatase (Mus musculus, UniProt P24822); assay: PubChem AID 488874; type: functional
Intestinal-type alkaline phosphatase (Mus musculus, UniProt P24822), sequence (P24822 whole entry): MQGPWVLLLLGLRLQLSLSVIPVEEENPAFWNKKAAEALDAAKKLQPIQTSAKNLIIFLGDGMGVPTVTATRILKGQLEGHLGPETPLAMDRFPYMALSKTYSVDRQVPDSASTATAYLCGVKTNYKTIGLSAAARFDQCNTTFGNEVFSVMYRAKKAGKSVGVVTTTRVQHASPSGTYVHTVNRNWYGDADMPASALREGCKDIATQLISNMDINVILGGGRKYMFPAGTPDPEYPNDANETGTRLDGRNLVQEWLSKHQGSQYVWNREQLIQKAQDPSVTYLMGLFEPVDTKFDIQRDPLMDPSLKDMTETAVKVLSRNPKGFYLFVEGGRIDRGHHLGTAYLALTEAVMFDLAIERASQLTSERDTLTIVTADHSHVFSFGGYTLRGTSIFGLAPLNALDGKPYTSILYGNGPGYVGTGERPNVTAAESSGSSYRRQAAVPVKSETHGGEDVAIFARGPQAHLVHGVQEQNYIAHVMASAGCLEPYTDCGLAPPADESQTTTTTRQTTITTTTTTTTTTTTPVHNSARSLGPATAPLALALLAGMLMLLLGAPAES

[11] = biological target: T1, Intestinal-type alkaline phosphatase (Homo sapiens, UniProt P09923); assay: human intestinal alkaline phosphatase activators, dose response, biochemical, luminescence, uHTS hits (AID 463120); type: functional
T1 sequence (P09923 whole entry): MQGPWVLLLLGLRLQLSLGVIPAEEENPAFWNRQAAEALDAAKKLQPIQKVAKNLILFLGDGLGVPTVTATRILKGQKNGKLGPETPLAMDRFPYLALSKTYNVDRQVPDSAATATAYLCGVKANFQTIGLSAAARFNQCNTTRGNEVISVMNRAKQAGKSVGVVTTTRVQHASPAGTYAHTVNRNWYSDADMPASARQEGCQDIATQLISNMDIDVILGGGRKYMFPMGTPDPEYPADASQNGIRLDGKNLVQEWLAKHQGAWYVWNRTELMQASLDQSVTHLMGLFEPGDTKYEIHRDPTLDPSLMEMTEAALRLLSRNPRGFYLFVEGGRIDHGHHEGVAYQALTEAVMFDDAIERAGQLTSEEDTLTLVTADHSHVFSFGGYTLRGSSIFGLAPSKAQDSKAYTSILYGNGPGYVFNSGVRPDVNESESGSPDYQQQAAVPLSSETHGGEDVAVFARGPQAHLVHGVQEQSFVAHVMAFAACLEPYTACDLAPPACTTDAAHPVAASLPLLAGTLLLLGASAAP

Nonstructural protein 1 = Nonstructural protein 1 (Influenza A virus, UniProt Q194T2); type: functional, Influenza A virus (A/California/07/2009(H1N1))
Nonstructural protein 1, sequence (Q194T2 whole entry): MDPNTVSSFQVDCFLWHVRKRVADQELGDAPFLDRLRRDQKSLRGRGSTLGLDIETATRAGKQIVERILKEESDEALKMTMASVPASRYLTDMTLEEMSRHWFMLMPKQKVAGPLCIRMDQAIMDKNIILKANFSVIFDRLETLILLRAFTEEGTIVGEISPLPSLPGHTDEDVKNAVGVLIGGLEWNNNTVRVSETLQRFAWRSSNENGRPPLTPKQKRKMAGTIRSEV

[12] = biological target: T1, Intestinal-type alkaline phosphatase; assay: activation of human intestinal alkaline phosphatase – biochemical, luminescent, uHTS hits, set 2, dose response (AID 488817); type: functional;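 further: potency of activators that raise enzyme activity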
[13] = biological target: T2, Alkaline phosphatase, tissue-nonspecific isozyme (Homo sapiens, UniProt P05186); assay: inhibition of tissue-nonspecific alkaline phosphatase – biochemical, dose response (AID 488882); type: functional
T2 sequence (P05186 whole entry): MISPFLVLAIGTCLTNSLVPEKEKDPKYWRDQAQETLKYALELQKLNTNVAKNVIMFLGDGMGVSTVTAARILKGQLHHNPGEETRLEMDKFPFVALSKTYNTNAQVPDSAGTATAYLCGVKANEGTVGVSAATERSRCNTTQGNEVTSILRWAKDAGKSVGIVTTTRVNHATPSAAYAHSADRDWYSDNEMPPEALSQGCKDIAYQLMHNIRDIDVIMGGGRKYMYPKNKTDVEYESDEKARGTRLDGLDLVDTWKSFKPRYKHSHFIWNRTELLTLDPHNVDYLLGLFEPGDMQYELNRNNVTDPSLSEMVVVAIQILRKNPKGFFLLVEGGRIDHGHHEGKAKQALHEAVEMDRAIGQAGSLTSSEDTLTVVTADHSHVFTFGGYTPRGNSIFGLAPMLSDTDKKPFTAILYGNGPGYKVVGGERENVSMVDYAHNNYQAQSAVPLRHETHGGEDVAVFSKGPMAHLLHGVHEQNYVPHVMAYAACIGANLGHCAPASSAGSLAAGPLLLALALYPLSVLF

[14] = viability loss in HeLa cells – cytotoxicity control for MgcRacGAP inhibitor project, dose response (AID 624300); type: functional
[15] = biological target: T3, Rac GTPase-activating protein 1 (Homo sapiens, UniProt Q9H0H5); assay: blockers of MgcRacGAP-driven Rac1 GTP hydrolysis – biochemical, ADP Hunter fluorescence, primary and confirmatory, confirmation (AID 624330); type: functional
T3 sequence (Q9H0H5 whole entry): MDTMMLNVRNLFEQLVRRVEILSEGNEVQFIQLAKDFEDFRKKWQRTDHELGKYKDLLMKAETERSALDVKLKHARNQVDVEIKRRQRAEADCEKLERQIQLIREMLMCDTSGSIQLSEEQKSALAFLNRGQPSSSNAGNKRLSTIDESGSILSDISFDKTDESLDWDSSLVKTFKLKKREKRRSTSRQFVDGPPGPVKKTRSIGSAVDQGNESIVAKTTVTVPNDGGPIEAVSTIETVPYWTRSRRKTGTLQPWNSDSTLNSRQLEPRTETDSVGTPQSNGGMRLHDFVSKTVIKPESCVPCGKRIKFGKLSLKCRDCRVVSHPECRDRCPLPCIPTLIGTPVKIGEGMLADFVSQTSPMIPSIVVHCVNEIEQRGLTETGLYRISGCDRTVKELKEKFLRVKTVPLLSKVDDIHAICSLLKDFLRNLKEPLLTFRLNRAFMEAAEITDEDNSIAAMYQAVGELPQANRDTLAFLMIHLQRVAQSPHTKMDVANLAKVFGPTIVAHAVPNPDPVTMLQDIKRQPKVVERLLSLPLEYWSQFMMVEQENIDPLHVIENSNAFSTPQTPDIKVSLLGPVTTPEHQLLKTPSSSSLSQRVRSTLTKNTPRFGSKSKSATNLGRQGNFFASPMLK

[16] = system: Streptococcus sp. 'group A'; assay: Streptococcus pyogenes SK(-)GAS viability under kanamycin – luminescence, BacTiterGlo, confirmation, counter-screen for streptokinase expression inhibitor project, dose response (AID 1900); type: functional, organism-based
[17] = biological target: T4, Heat shock factor protein 1 (Mus musculus, UniProt P38532); assay: decrease of HSF1-responsive luciferase luminescence – cell-based, NIH3T3, dose retest, confirmation (AID 2382); type: functional;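 further: NIH3T3 fibroblasts with HSF1-driven luciferase reporter stressed by proteasome inhibitor MG132; luminescence from HSF1-driven luciferase expression after 8 hours of MG132 stress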
T4 sequence (P38532 whole entry): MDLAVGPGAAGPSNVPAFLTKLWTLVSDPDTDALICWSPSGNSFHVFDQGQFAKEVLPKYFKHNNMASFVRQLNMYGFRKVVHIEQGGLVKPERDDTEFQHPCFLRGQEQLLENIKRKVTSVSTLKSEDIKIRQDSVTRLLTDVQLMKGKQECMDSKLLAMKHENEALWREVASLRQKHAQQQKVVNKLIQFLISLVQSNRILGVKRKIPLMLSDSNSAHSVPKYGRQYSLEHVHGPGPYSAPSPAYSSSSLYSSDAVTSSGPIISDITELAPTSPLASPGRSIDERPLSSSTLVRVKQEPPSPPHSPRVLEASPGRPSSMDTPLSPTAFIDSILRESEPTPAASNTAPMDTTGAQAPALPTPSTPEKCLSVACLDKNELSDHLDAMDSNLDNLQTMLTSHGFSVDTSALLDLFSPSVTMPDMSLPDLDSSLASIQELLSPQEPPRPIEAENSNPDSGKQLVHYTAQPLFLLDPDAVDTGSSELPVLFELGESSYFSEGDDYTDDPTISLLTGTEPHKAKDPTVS

Streptococcus = assay: GAS UMAA2166 growth inhibition – luminescence, BacTiterGlo, counter-screen for streptokinase expression inhibitor project, dose response (AID 1915); type: functional, organism-based;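 further: potency for reduction of bacterial viability or growth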
[18] = biological target: T2, Alkaline phosphatase, tissue-nonspecific isozyme; assay: activation of tissue-nonspecific alkaline phosphatase – biochemical, TNAP isozyme, human IAP uHTS hits, selectivity assay for human IAP activator project, dose response (AID 488886); type: functional;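 further: potency of compounds raising TNAP activity as a selectivity check on IAP activators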
Albumin = Albumin (Bos taurus, UniProt P02769); assay: Counterscreen for inhibitors of T-cell receptor (TCR)-CD3 interaction: Fluorescence-based biochemical high throughput dose response assay to identify inhibitors of T-cell receptor (TCR)-CD3 interaction using a TAMRA-labeled BSA probe.; type: functional
Albumin, sequence (P02769 whole entry): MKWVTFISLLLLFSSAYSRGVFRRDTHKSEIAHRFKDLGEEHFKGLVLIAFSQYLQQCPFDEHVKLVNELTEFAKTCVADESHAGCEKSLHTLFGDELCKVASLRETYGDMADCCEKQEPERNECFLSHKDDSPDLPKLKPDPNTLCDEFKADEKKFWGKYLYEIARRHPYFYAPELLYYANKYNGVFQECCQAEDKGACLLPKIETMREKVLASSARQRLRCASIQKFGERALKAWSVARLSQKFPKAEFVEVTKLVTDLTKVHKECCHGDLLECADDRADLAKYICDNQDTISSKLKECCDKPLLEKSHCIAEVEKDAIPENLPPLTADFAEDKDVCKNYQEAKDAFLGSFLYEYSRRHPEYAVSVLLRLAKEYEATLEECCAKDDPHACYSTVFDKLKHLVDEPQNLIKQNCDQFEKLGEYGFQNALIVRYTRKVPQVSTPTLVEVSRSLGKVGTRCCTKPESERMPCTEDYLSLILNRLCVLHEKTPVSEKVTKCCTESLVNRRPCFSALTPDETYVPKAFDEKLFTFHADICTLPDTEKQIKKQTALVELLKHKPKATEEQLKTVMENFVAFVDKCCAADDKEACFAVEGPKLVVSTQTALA

HEK293 [19] = assay: inhibition of NOD1-driven NF-kB reporter – cell-based, luminescence, uHTS, primary screen (AID 1578); type: functional; settings: Homo sapiens
HEK293 [20] = assay: cells; type: functional, cell-based; settings: Homo sapiens
HEK293 [21] = assay: cells; type: functional, cell-based; settings: Homo sapiens; remark: listed apart in the source
[22] = biological target: Nucleotide-binding oligomerization domain-containing protein 2 (Homo sapiens, UniProt Q9HC29); assay: inhibition of NOD2-driven NF-kB reporter – cell-based, luminescence, uHTS, HEK293 (AID 1566); type: functional
Nucleotide-binding oligomerization domain-containing protein 2, sequence (Q9HC29 whole entry, the tested form may be a part): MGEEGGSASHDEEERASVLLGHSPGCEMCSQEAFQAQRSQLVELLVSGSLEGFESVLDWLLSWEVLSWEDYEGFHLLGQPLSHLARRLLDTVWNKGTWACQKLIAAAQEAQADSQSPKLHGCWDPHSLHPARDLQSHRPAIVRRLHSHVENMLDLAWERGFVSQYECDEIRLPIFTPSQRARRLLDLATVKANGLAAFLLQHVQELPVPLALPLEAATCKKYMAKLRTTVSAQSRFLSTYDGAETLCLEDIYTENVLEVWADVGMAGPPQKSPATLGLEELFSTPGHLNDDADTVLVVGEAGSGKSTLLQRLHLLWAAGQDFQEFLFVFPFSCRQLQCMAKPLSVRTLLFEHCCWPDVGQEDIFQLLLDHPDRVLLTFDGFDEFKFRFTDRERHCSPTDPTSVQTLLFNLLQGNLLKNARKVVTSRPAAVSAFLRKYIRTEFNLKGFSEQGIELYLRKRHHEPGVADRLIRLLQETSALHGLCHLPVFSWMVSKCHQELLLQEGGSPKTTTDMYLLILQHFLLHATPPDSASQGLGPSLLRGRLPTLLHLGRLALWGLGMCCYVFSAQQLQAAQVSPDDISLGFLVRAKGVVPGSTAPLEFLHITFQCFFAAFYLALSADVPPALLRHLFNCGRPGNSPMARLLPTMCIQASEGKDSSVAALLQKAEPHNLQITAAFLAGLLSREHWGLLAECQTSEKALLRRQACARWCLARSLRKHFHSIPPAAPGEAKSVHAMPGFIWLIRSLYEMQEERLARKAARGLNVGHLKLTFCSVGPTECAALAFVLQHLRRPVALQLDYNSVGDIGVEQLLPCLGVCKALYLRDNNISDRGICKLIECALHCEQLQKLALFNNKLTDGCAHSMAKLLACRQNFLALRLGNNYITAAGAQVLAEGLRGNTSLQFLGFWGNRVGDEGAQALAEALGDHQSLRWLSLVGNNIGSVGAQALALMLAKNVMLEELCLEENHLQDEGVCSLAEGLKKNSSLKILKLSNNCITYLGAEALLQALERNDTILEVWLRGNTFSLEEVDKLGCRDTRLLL

HEK293 [23] = assay: NOD2 signaling inhibitors in MDP-stimulated cells, cell-based, uHTS, luminescence (AID 2001); type: functional; settings: Homo sapiens
HEK293 [24] = assay: cells; type: functional, cell-based; settings: Homo sapiens; remark: listed apart in the source
Tumor necrosis factor = Tumor necrosis factor (Homo sapiens, UniProt P01375); assay: analog potency on TNFa NF-kB signaling – cell-based, revised, SAR follow-up (AID 2337); type: functional
Tumor necrosis factor, sequence (P01375 whole entry, the tested form may be a part): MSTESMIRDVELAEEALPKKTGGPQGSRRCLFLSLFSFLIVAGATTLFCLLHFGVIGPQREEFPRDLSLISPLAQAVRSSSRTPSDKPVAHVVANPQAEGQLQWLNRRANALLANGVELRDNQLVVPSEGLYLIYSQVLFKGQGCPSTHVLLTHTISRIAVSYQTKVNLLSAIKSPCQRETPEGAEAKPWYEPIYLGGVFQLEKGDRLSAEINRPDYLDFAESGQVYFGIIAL

[25] = biological target: T5, Nucleotide-binding oligomerization domain-containing protein 1 (Homo sapiens, UniProt Q9Y239); assay: blockers of NOD1 pathway activity – revised, SAR follow-up (AID 2333); type: functional
T5 sequence (Q9Y239 whole entry): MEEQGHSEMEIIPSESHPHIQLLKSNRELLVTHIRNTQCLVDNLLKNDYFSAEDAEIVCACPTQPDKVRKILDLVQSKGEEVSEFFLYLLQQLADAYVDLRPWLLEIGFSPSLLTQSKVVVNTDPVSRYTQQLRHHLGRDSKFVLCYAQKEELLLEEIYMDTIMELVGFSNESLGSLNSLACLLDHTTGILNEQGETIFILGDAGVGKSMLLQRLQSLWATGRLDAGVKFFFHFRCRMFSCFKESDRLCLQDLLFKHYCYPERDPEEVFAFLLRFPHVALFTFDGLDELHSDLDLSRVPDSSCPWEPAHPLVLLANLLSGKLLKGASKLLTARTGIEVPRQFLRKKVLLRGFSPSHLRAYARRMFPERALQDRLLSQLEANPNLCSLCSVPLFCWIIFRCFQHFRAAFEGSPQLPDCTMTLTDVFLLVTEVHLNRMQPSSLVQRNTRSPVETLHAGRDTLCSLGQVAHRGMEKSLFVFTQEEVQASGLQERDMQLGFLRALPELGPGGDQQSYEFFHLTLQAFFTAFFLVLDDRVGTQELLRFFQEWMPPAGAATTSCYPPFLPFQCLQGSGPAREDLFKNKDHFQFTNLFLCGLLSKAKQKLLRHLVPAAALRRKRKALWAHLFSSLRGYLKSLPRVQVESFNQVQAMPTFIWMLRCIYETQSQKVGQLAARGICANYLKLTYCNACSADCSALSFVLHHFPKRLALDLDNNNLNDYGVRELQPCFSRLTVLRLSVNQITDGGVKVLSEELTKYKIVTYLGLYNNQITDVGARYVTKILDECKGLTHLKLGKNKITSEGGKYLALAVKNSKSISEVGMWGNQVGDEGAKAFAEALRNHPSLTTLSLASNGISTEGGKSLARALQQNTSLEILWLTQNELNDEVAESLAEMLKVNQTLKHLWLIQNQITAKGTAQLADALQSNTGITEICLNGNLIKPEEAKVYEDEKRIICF

X-box-binding protein 1 = biological target: T6, X-box-binding protein 1 (Homo sapiens, UniProt P17861); type: functional, Cricetulus griseus;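 further: confirmatory dose-response counter-screen serving a CHOP assay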
T6 sequence (P17861 whole entry): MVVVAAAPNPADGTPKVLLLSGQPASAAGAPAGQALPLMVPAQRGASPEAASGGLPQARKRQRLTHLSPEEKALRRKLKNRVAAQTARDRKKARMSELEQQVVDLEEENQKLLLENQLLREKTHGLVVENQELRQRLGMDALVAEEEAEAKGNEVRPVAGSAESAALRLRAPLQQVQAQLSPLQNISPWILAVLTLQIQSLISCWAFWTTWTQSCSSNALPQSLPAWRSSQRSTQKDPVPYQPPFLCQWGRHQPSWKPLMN

HEK293 [26] = assay: cells; settings: Homo sapiens

## O=C(Nc1nc2ccc(F)cc2s1)C1CCN(S(=O)(=O)c2cc([N+](=O)[O-])ccc2Cl)CC1
[1]
  CC50: 12 µM (active)
[2]
  EC50: 14.7 µM (active)
[3]
  IC50: 2.34 µM (active)
[4]
  EC50: 25.8 µM (active)
[5]
  IC50: 2.37 µM (active)
H4
  EC50: 4.7 µM (active)
[6]
  CC50: 20.2 µM (active)
INS1
  AC50: 8.24 µM (active)
[7]
  IC50: > 69.5 µM (inactive)
[8]
  IC50: > 7.72 µM (active)

## CC1C(=O)NN=C1C(=O)N/N=C\c1ccc(O)cc1O (configuration not stated)
[9]
  IC50: 7.72 µM (active)
[10]
  IC50: > 100 µM (inactive)
[11]
  EC50: 8.3 µM (active)
Nonstructural protein 1
  IC50: 15.9 µM (active)
[12]
  EC50: 11.3 µM (active)
[13]
  IC50: 7.32 µM (active)
[14]
  CC50: 100 µM (active)
[15]
  IC50: 45.4 µM (active)

## CCOC(=O)c1c(C)[nH]c(C(=O)N/N=C/c2cc([N+](=O)[O-])ccc2O)c1C
[16]
  EC50: 2.33 µM (active)
[17]
  EC50: 0.86 µM (active)
Streptococcus
  EC50: 2.97 µM (active)
[10]
  IC50: > 100 µM (inactive)
[11]
  EC50: 12.1 µM (active)
Nonstructural protein 1
  IC50: 44 µM (active)
[12]
  EC50: 11.4 µM (active)
[18]
  EC50: 22.3 µM (active)
Albumin
  IC50: > 94.1 µM (inactive)

## CCCCn1c(=O)c(C(=O)Nc2cnccn2)c(O)c2ccccc21
HEK293 [19]
  EC50: 3.1 µM (active)
HEK293 [20]
  IC50: > 20 µM (inactive)
HEK293 [21]
  IC50: > 20 µM (inactive)
[22]
  EC50: 1.72 µM (active)
HEK293 [23]
  IC50: 7.07 µM (active)
HEK293 [24]
  IC50: > 20 µM (inactive)
Tumor necrosis factor
  IC50: 4.92 µM (active)
[25]
  IC50: 7.68 µM (active)
X-box-binding protein 1
  Absolute IC50 (XBP1): 10 µM
HEK293 [26]
  IC50: > 20 µM (inactive)
